Where two headings read alike, the source gives them in different places.
Experiments:
MALT1 = target: T1, MALT1 (Homo sapiens, UniProt Q9UDY8); experiment: MALT-1 Fluorogenic Peptide Cleavage Assay (MALT1 inhibition assay); format: biochemical; settings: Avi-tagged FL MALT-1, Ac-LRSR-AMC peptide substrate, 30 min pre-incubation, 90 min reaction
T1 construct: Avi-tagged FL MALT-1 (Pharmaron, stored at −70° C.); Avi tag
T1 sequence (Q9UDY8 1-824): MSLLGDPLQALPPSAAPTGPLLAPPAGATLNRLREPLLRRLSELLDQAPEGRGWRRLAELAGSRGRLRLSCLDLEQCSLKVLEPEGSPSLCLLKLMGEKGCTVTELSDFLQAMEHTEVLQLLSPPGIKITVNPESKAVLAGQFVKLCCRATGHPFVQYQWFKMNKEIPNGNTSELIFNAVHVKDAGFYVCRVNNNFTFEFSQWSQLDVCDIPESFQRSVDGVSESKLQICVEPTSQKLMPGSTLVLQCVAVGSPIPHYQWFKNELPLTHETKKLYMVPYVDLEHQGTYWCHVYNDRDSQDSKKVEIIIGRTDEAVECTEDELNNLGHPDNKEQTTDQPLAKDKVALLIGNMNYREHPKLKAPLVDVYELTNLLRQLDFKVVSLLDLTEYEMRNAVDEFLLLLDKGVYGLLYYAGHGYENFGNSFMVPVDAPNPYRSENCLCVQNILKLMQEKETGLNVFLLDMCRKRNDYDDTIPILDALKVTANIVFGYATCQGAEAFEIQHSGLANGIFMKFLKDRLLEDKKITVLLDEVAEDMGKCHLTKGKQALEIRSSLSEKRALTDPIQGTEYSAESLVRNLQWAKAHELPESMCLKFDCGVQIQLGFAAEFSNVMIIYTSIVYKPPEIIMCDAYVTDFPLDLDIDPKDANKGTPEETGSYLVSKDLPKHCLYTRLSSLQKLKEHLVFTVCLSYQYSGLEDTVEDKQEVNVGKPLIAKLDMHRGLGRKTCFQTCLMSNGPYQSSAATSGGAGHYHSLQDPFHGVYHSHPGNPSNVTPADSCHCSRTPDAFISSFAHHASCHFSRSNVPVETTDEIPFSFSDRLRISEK
How it was run: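 IC50 from sigmoidal fits of % inhibition, with fluorescence (ex 342, em 441 nm) from AMC released from the quenched LRSR peptide after 90 min at room temperature. Full-length Avi-tagged MALT1 saw compound for 30 min first; final DMSO 2%.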

NF-kB = NF-kB reporter assay in Jurkat cells stimulated with aCD3/aCD28/PMA; format: cell-based; settings: Homo sapiens, Jurkat, read-out: NF-kB Reporter Assay IC50
How it was run: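 Stimulation used final aCD3 5 μg/mL, aCD28 5 μg/mL and PMA 0.03 μg/mL for 4 hr at 37° C, after 1 hr compound pretreatment of 25,000 serum-starved Jurkat cells per well. One-Glo luminescence gave IC50 values.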

[1] = Jurkat cells, 1 hr compound incubation, aCD3/aCD28/PMA stimulation 4 hr, One-Glo readout

IC50 (MALT1)	IC50 (NF-kB; [1])	Compound	IC50 (NF-kB)
< 400 nM	< 400 nM	COc1ccc2cnn(C)c2c1NS(=O)(=O)c1ccc(-n2nccc2OC)nc1 [Example I-151, N-(6-Methoxy-1-Methyl-1H-Indazol-7-yl)-6-(5-Methoxy-1H-Pyrazol-1-yl)Pyridine-3-Sulfonamide]	
< 400 nM	< 400 nM	COc1ccc2cnn(C)c2c1NS(=O)(=O)c1ccc(-n2ccc(C3CC3)n2)nc1 [Example I-153, 6-(3-Cyclopropyl-1H-Pyrazol-1-yl)-N-(6-Methoxy-1-Methyl-1H-Indazol-7-yl)Pyridine-3-Sulfonamide]	
< 400 nM	< 400 nM	COc1ncc2cnn(C)c2c1NS(=O)(=O)c1ccc(-n2ccc(C(F)(F)F)n2)nc1 [Example I-156, N-(6-Methoxy-1-Methyl-1H-Pyrazolo[4,3-C]Pyridin-7-yl)-6-(3-(Trifluoromethyl)-1H-Pyrazol-1-yl)Pyridine-3-Sulfonamide]	
< 400 nM	< 400 nM	COc1ccc2cnn(C)c2c1NS(=O)(=O)c1ccc(-n2cc([N+](=O)[O-])cn2)nc1 [Example I-157, N-(6-Methoxy-1-Methyl-1H-Indazol-7-yl)-6-(4-Nitro-1H-Pyrazol-1-yl)Pyridine-3-Sulfonamide]	
< 400 nM	< 400 nM	Cn1ncc2ccc(O)c(NS(=O)(=O)c3ccc(-n4cc(C(F)(F)F)cn4)nc3)c21 [Example I-159, N-(6-Hydroxy-1-Methyl-1H-Indazol-7-yl)-6-(4-(Trifluoromethyl)-1H-Pyrazol-1-yl)Pyridine-3-Sulfonamide]	
1000 to 2500 nM	< 400 nM	COc1ccc2cnn(C)c2c1NS(=O)(=O)c1ccc(-n2ccn(C)c2=O)nc1 [Example I-160, N-(6-Methoxy-1-Methyl-1H-Indazol-7-yl)-6-(3-Methyl-2-Oxo-2,3-Dihydro-1H-Imidazol-1-yl)Pyridine-3-Sulfonamide]	
1000 to 2500 nM	400 to 1000 nM	COc1ccc2cnn(C)c2c1NS(=O)(=O)c1ccc(-c2noc(C)n2)nc1 [Example I-161, N-(6-Methoxy-1-Methyl-1H-Indazol-7-yl)-6-(5-Methyl-1,2,4-Oxadiazol-3-yl)Pyridine-3-Sulfonamide]	
< 400 nM	< 400 nM	COc1ccc2cnn(C)c2c1N(C)S(=O)(=O)c1ccc(-n2cc(C(F)(F)F)cn2)nc1 [Example I-162, N-(6-Methoxy-1-Methyl-1H-Indazol-7-yl)-N-Methyl-6-(4-(Trifluoromethyl)-1H-Pyrazol-1-yl)Pyridine-3-Sulfonamide]	
< 400 nM	400 to 1000 nM	COc1ccc2cnn(C)c2c1N(CCCN(C)C)S(=O)(=O)c1ccc(-n2cc(C(F)(F)F)cn2)nc1 [Example I-164, N-(3-(Dimethylamino)Propyl)-N-(6-Methoxy-1-Methyl-1H-Indazol-7-yl)-6-(4-(Trifluoromethyl)-1H-Pyrazol-1-yl)Pyridine-3-Sulfonamide]	
> 2500 nM	> 2500 nM	COc1ccc2cnn(C)c2c1NS(=O)(=O)c1ccc(-c2nc(C)n[nH]2)nc1 [Example I-166, N-(6-Methoxy-1-Methyl-1H-Indazol-7-yl)-6-(3-Methyl-1H-1,2,4-Triazol-5-yl)Pyridine-3-Sulfonamide]	
1000 to 2500 nM	> 2500 nM	COc1ccc2cnn(C)c2c1NS(=O)(=O)c1ccc(-c2nc(C(F)(F)F)n[nH]2)nc1 [Example I-167, N-(6-Methoxy-1-Methyl-1H-Indazol-7-yl)-6-(3-(Trifluoromethyl)-1H-1,2,4-Triazol-5-yl)Pyridine-3-Sulfonamide]	
1000 to 2500 nM	> 2500 nM	COc1ccc2cnn(C)c2c1NS(=O)(=O)c1ccc(-c2nc(C)no2)nc1 [Example I-169, N-(6-Methoxy-1-Methyl-1H-Indazol-7-yl)-6-(3-Methyl-1,2,4-Oxadiazol-5-yl)Pyridine-3-Sulfonamide]	
< 400 nM	< 400 nM	COc1ccc2[nH]cc(C)c2c1NS(=O)(=O)c1ccc(-n2cc(C(F)(F)F)cn2)nc1 [Example I-174, N-(5-methoxy-3-methyl-1H-indol-4-yl)-6-(4-(trifluoromethyl)-1H-pyrazol-1-yl)pyridine-3-sulfonamide]	
< 400 nM	< 400 nM	COc1ccc2cn[nH]c2c1NS(=O)(=O)c1ccc(-n2cc(C(F)(F)F)cn2)nc1 [Example I-175, N-(6-methoxy-1H-indazol-7-yl)-6-(4-(trifluoromethyl)-1H-pyrazol-1-yl)pyridine-3-sulfonamide]	
> 2500 nM	> 2500 nM	COc1ccc2cnn(C)c2c1NS(=O)(=O)c1ccc(-c2nc(C)n(C)n2)nc1 [Example I-176, 6-(1,5-Dimethyl-1,2,4-Triazol-3-yl)-N-(6-Methoxy-1-Methylindazol-7-yl)Pyridine-3-Sulfonamide]	
> 2500 nM	> 2500 nM	COc1ccc2cnn(C)c2c1NS(=O)(=O)c1ccc(CO)nc1 [Example I-177, 6-(Hydroxymethyl)-N-(6-Methoxy-1-Methyl-1H-Indazol-7-yl)Pyridine-3-Sulfonamide]	

Further lines, the molecule ahead of its results:

Compound	IC50 (MALT1)	IC50 (NF-kB; [1])	IC50 (NF-kB)
CCC(=O)c1cnn(-c2ccc(S(=O)(=O)Nc3cccc4cnn(C)c34)cn2)c1 [Example I-152, N-(1-Methyl-1H-Indazol-7-yl)-6-(4-Propionyl-1H-Pyrazol-1-yl)Pyridine-3-Sulfonamide]	> 2500 nM	< 400 nM	
Cn1ncc2cccc(NS(=O)(=O)c3ccc(-c4cc[nH]c(=O)c4)nc3)c21 [Example I-154, N-(1-Methyl-1H-Indazol-7-yl)-2′-Oxo-1′,2′-Dihydro-[2,4′-Bipyridine]-5-Sulfonamide]	> 2500 nM	> 2500 nM	
Cc1[nH]ncc1-c1ccc(S(=O)(=O)Nc2cccc3cnn(C)c23)cn1 [Example I-155, N-(1-Methyl-1H-Indazol-7-yl)-6-(5-Methyl-1H-Pyrazol-4-yl)Pyridine-3-Sulfonamide]	> 2500 nM	< 400 nM	
Cn1c(=O)c2cccc(NS(=O)(=O)c3ccc(-n4cc(C(F)(F)F)cn4)nc3)c2n1C [Example I-158, N-(1,2-Dimethyl-3-Oxo-2,3-Dihydro-1H-Indazol-7-yl)-6-(4-(Trifluoromethyl)-1H-Pyrazol-1-yl)Pyridine-3-Sulfonamide]	> 2500 nM	> 2500 nM	
COc1ccc2cnn(C)c2c1N(CCN(C)C)S(=O)(=O)c1ccc(-n2cc(C(F)(F)F)cn2)nc1 [Example I-163, N-(2-(Dimethylamino)Ethyl)-N-(6-Methoxy-1-Methyl-1H-Indazol-7-yl)-6-(4-(Trifluoromethyl)-1H-Pyrazol-1-yl)Pyridine-3-Sulfonamide]	< 400 nM		1000 to 2500 nM
COc1ccc2cnn(C)c2c1N(C)S(=O)(=O)c1ccc(-c2cc(C(F)(F)F)n(C)n2)nc1 [Example I-165, N-(6-Methoxy-1-Methyl-1H-Indazol-7-yl)-N-Methyl-6-(1-Methyl-5-(Trifluoromethyl)-1H-Pyrazol-3-yl)Pyridine-3-Sulfonamide]	< 400 nM	< 400 nM	
COc1ccc2cnn(C)c2c1NS(=O)(=O)c1ccc(-c2nnc(C)n2C)nc1 [Example I-168, 6-(4,5-dimethyl-4H-1,2,4-triazol-3-yl)-N-(6-methoxy-1-methyl-1H-indazol-7-yl)pyridine-3-sulfonamide]	> 2500 nM	> 2500 nM	
COc1ccc2cnn(C)c2c1NS(=O)(=O)c1ccc(-c2nnc(C)o2)nc1 [Example I-170, N-(6-Methoxy-1-Methyl-1H-Indazol-7-yl)-6-(5-Methyl-1,3,4-Oxadiazol-2-yl)Pyridine-3-Sulfonamide]	> 2500 nM	> 2500 nM	
CC(C)c1ccn(-c2ccc(S(=O)(=O)N(C)c3cccc4cnn(C)c34)cn2)n1 [Example I-171, 6-(3-isopropyl-1H-pyrazol-1-yl)-N-methyl-N-(1-methyl-1H-indazol-7-yl)pyridine-3-sulfonamide]	> 2500 nM	< 400 nM	
COc1ccc2cnn(C)c2c1N(C)S(=O)(=O)c1ccc(-n2cc(C(C)C)cn2)nc1 [Example I-172, 6-(4-isopropylpyrazol-1-yl)-N-(6-methoxy-1-methylindazol-7-yl)-N-methylpyridine-3-sulfonamide]	< 400 nM	400 to 1000 nM	
COc1ccc2cnn(C)c2c1NS(=O)(=O)c1ccc(-c2csc(C)n2)nc1 [Example I-173, N-(6-methoxy-1-methylindazol-7-yl)-6-(2-methyl-1,3-thiazol-4-yl)pyridine-3-sulfonamide]	< 400 nM		< 400 nM

Reference: patent publication US20240150365A1 (Hotspot Therapeutics, Inc., priority 2022, published 2024)
